From ChEMBL document CHEMBL5360588, “LC-MS-Guided Isolation of Cyanogripeptides A-C, Cyclolipopeptides with β-Methyl-Leucine Residues, from an Actinoalloteichus cyanogriseus LHW52806” (J Nat Prod, 2023) come the findings set out here.

Values after ≈ are worked out from the molar mass of the structure shown. Bounds are passed on as bounds.

A word on the IC50: it is the concentration at which inhibition is half-maximal. What is called MIC is the lowest concentration found to suppress growth.

One experiment deals with PC-9. As to the kind of experiment: Antiproliferative activity against human PC-9 cells assessed as inhibition of cell growth measured after 72 by Cell titre-glo assay. Format: functional, cell-based.
Another experiment concerns U-937. The experiment can be described thus: Antiproliferative activity against human U-937 cells assessed as inhibition of cell growth measured after 72 by Cell titre-glo assay. Format: functional, cell-based.
Another experiment relates to Daudi. The experiment can be described thus: Antiproliferative activity against human Daudi cells assessed as inhibition of cell growth measured after 72 by Cell titre-glo assay. Format: functional, cell-based.
The test system of a further experiment is PC-3. As to the kind of experiment: Antiproliferative activity against human PC-3 cells assessed as inhibition of cell growth measured after 72 by Cell titre-glo assay. Format: functional, cell-based.
A further experiment relates to NB-4. The experiment can be described thus: Antiproliferative activity against human NB4 cells assessed as inhibition of cell growth measured after 72 by Cell titre-glo assay. Format: functional, cell-based.
For another experiment, the system named is Raji. The experiment can be described thus: Antiproliferative activity against human Raji cells assessed as inhibition of cell growth measured after 72 by Cell titre-glo assay. Format: functional, cell-based.
The test system of the next experiment is A2780. The experiment can be described thus: Antiproliferative activity against human A2780 cells assessed as inhibition of cell growth measured after 72 by Cell titre-glo assay. Format: functional, cell-based.
For the next experiment, the system named is HT-29. As to the kind of experiment: Antiproliferative activity against human HT-29 cells assessed as inhibition of cell growth measured after 72 by Cell titre-glo assay. Format: functional, cell-based.
Experiment [1] deals with Mycolicibacterium smegmatis. The experiment can be described thus: Antibacterial activity against Mycolicibacterium smegmatis ATCC607 assessed as inhibition of bacterial growth measured after 3 days by broth microdilution assay. Format: functional. Particulars: ATCC607, 72 h, time 3 day. For orientation: Broth dilution looks for growth in wells or tubes with falling amounts of substance.

In experiment [2] the test system is Helicobacter pylori. The experiment can be described thus: Antibacterial activity against Helicobacter pylori G27 assessed as inhibition of bacterial growth measured after 3 days by broth microdilution assay. Format: functional. The conditions noted are these: G27, 72 h, time 3 day.
Experiment [3] deals with Helicobacter pylori. As to the kind of experiment: Antibacterial activity against Helicobacter pylori 26695 assessed as inhibition of bacterial growth measured after 3 days by broth microdilution assay. Format: functional. The conditions noted are these: Helicobacter pylori, 26695, 72 h; time 3 day.

Turning to `CC(C)C[C@H](NC(=O)Cc1ccccc1)C(=O)N[C@H](CCCNC(=N)N)C(=O)N[C@@H]1C(=O)N[C@@H]([C@@H](C)C(C)C)C(=O)NCC(=O)N[C@@H]([C@H](C)C(C)C)C(=O)O[C@@H]1C`, the IC50 in the experiment on PC-9, in the experiment on U-937, in the experiment on Daudi, in the experiment with PC-3, in the experiment with NB-4 and with Raji was more than 20 µM in each case. For the same molecule, the IC50 in the experiment with A2780 and with HT-29 was more than 20 µM throughout.
Turning to `CC(C)CCCCC(=O)N[C@@H](CC(C)C)C(=O)N[C@H](CCCNC(=N)N)C(=O)N[C@@H]1C(=O)N[C@@H]([C@@H](C)C(C)C)C(=O)NCC(=O)N[C@@H]([C@H](C)C(C)C)C(=O)O[C@@H]1C`, the IC50 in the experiment with PC-9, in the experiment with U-937, in the experiment with Daudi, in the experiment with PC-3, with NB-4 and with Raji was more than 20 µM in each case. Besides, the IC50 in the experiment with A2780 and in the experiment with HT-29 was more than 20 µM each time. Besides, the MIC (in experiment [1]; in the experiment with Helicobacter pylori [2]; with Helicobacter pylori [3]) was 32 µg/mL (≈ 39.6 µM) in each case.
On to `CC(C)CCC(=O)N[C@@H](CC(C)C)C(=O)N[C@H](CCCNC(=N)N)C(=O)N[C@@H]1C(=O)N[C@@H]([C@@H](C)C(C)C)C(=O)NCC(=O)N[C@@H]([C@H](C)C(C)C)C(=O)O[C@@H]1C`, for which the IC50 in the experiment on PC-9, in the experiment on U-937, in the experiment with Daudi, with PC-3, in the experiment with NB-4 and in the experiment with Raji was more than 20 µM throughout. The IC50 with A2780 and in the experiment with HT-29 was more than 20 µM each time.
